The source made the active and inactive calls. No cut-off for these calls is given here.

A short description of series [1]: Cytotoxicity against C57BL6/J mouse brown Preadipocyte assessed as decrease in cell viability > 8 uM measured for 24 hrs by trypan blue staining based hemocytometer analysis. Type of series: toxicity.
The nature of series [2]: Cytotoxicity against C57BL6/J mouse brown Preadipocyte assessed as decrease in cell viability at 4 uM measured for 24 hrs by trypan blue staining based hemocytometer analysis. The class given is toxicity.
A short description of series [3]: Inhibition of adipogenic differentiation in C57BL/6J mouse brown Preadipocyte assessed as reduction in neutral lipid content at 4 uM by Oil Red O staining based light microscopy. The class given is functional.
A short description of series [4]: Effect on Pparg1 mRNA level in mouse Adipocyte by qRT-PCR analysis. Type of series: functional.
Series [5] can be described thus: Effect on Pparg2 mRNA level in mouse Adipocyte by qRT-PCR analysis. Type of series: functional.
Series [6] in a line: Effect on CEBPA mRNA level in mouse Adipocyte by qRT-PCR analysis. The class given is functional.
Series [7] in a line: Effect on CEBPB mRNA level in mouse Adipocyte by qRT-PCR analysis. The class given is functional.
A short description of series [8]: Downregulation of C/EBPdelta protein expression level in mouse Adipocyte by Western blot analysis. The class given is functional.
The subject of series [9] is Adipocyte. Nature of the series: Downregulation of C/EBPalpha protein expression level in mouse Adipocyte by Western blot analysis. The class given is functional, cell-based.
Series [10] concerns Adipocyte. Nature of the series: Downregulation of C/EBPbeta protein expression level in mouse Adipocyte by Western blot analysis. Type of series: functional, cell-based.
Series [11] relates to Adipocyte. Briefly: Downregulation of C/EBPdelta protein expression level in mouse brown Adipocyte by Western blot analysis. The class given is functional, cell-based.
Series [12] deals with Adipocyte. Briefly: Effect on C/EBPdelta mRNA level in mouse brown Adipocyte by qRT-PCR analysis. The class given is functional, cell-based.
Series [13] in a line: Effect on CD36 mRNA level in mouse Adipocyte by qRT-PCR analysis. Type of series: functional.
Series [14] concerns Adipocyte. Briefly: Potentiation of CL-316243-stimulated mouse Brown adipocyte activation assessed as increase in Ucp1 expression at 4 uM pretreated with compound for 9 hr followed by CL-316243 induction and measured after 8 hrs by qRT-PCR analysis. Type of series: functional, cell-based. The following applies: time 17.0 hrs.
Series [15] relates to Adipocyte. Nature of the series: Potentiation of CL-316243-stimulated mouse Brown adipocyte activation assessed as increase in CIDEA mRNA expression at 4 uM pretreated with compound for 9 hr followed by CL-316243 induction and measured after 8 hrs by qRT-PCR analysis. Type of series: functional, cell-based. Particulars: time 17.0 hrs.
For series [16], the system named is Adipocyte. Briefly: Potentiation of CL-316243-stimulated mouse Brown adipocyte activation assessed as increase in ELOVL3 mRNA expression at 4 uM pretreated with compound for 9 hr followed by CL-316243 induction and measured after 8 hrs by qRT-PCR analysis. The class given is functional, cell-based. The following applies: time 17.0 hrs.
For series [17], the system named is Adipocyte. Briefly: Potentiation of CL-316243-stimulated mouse Brown adipocyte activation assessed as increase in ELVOL6 mRNA expression at 4 uM pretreated with compound for 9 hr followed by CL-316243 induction and measured after 8 hrs by qRT-PCR analysis. Type of series: functional, cell-based. The following applies: time 17.0 hrs.
Series [18] concerns Adipocyte. Nature of the series: Potentiation of CL-316243-stimulated mouse Brown adipocyte activation assessed as increase in PPARA mRNA expression at 4 uM pretreated with compound for 9 hr followed by CL-316243 induction and measured after 8 hrs by qRT-PCR analysis. Type of series: functional, cell-based. The following applies: time 17.0 hrs.
Series [19] deals with Adipocyte. Briefly: Potentiation of CL-316243-stimulated mouse Brown adipocyte activation assessed as increase in CPT1a mRNA expression at 4 uM pretreated with compound for 9 hr followed by CL-316243 induction and measured after 8 hrs by qRT-PCR analysis. Type of series: functional, cell-based. The following applies: time 17.0 hrs.
In series [20] the test system is Adipocyte. Nature of the series: Potentiation of CL-316243-stimulated mouse Brown adipocyte activation assessed as increase in CTP1B mRNA expression at 4 uM pretreated with compound for 9 hr followed by CL-316243 induction and measured after 8 hrs by qRT-PCR analysis. Particulars: time 17.0 hrs. The class given is functional, cell-based.
The test system of series [21] is Adipocyte. Briefly: Potentiation of CL-316243-stimulated mouse Brown adipocyte activation assessed as increase in CPT2 mRNA expression at 4 uM pretreated with compound for 9 hr followed by CL-316243 induction and measured after 8 hrs by qRT-PCR analysis. Type of series: functional, cell-based. Particulars: time 17.0 hrs.
For series [22], the system named is Adipocyte. Briefly: Potentiation of CL-316243-stimulated mouse Brown adipocyte activation assessed as increase in FGF21 mRNA expression at 4 uM pretreated with compound for 9 hr followed by CL-316243 induction and measured after 8 hrs by qRT-PCR analysis. The class given is functional, cell-based. Particulars: time 17.0 hrs.

As to `COc1c(C)c(O)c2c(=O)c(OC)c(-c3ccc(O)cc3)oc2c1OC`, the Activity result in [1] is reported as “Non-Toxic”; in series [2] it was “Non-Toxic”; in [4], 50.3%; in series [5], 50.3%; in series [6] it was 50.3%; in series [7], 50.3%. In addition, the Activity in series [8] turned out to be 31.93%; in series [13] it was 24.18%. The inhibition at 4 µM in [3] is 54.8%. Also, the result in series [9], in series [10], in [14], in series [15], in series [16] and in series [17] was inactive. Moreover, the outcome in series [18], in series [19], in series [20], in [21] and in series [22] was inactive. Further, the result in [11] and in [12] was Active.

These data come from ChEMBL document CHEMBL5357004 (J Nat Prod, 2024).
